# Laboratory results taken from US20020128434A1, “Alpha-(1,3-dicarbonylenol ether) methyl ketones as cysteine protease inhibitors” (priority 1993, published 2002).
# Like-named read-outs stand apart in the source and are kept apart here. *1 amine or outer side, *2 acyl side, *3 side chain or, on linkers, in order; H or OH if unused. Where a SMILES comes first, the peptide text is derived from it. [ ]: non-standard residue; d: D form. The star is where a group is joined. ξ: configuration not given here. hPhe = N[C@@H](CCc1ccccc1)C(=O)O; Morpholide = C1CN(*)CCO1; ξF = NC(Cc1ccccc1)C(=O)O; CO = O=C([*:1])[*:2]; CH2F = FC*
# Tests used:
# [1] = molecular target: T1, Cathepsin B, purified from human liver (Homo sapiens, UniProt P07858); experiment: In vitro evaluation of inhibitors with purified cathepsin B; type: biochemical
# T1 construct: Cathepsin B, purified from human liver; purchased Enzyme Systems Products (Dublin, Calif.); host or cells: human liver (tissue-purified)
# Description: Enzyme: Cathepsin B, purified from human liver, is from Enzyme Systems Products (Dublin, Calif.). The activity is 50 mU per ml at 30° C., in 52 mM sodium phosphate, pH 6.2, 31 mM DTT, 2.1 mM EDTA, with 0.2 mM Z—Arg—Arg-7-amino-4-trifluoromethyl-coumarin as a substrate. Specific activity is 8330 mU per mg protein. (1 mU=1 nmol per min.)
# Substrate Boc—Leu—Arg—Arg-7-amino-4-trifluoromethyl-coumarin-2HBr is from Enzyme Systems Products (Dublin, Calif.) and is known to be a specific substrate for cathepsin B. A 20 mM solution is made in DMF and stored at […].
# Candidate inhibitors are dissolved in DMF and diluted to 20 mM and stored at […]. Dilutions are made in assay buffer.
# The percent inhibition and the inhibitor concentration at which the enzyme is 50% inhibited (IC50) are determined as follows. Five μl of assay buffer (50 mM potassium phosphate pH 6.2, 2 mM EDTA, 5 mM DTT) on ice for 30 min. The inhibition is initiated by the addition of […] inhibitor each to the 480 μl aliquots. The 485 μl aliquot with enzyme is used as a control and thus receives no inhibitor. The enzyme/inhibitor mixtures are incubated 10 min. on ice and assayed for cathepsin B activity as follows:
# Cathepsin B assay: To 490 μl of pre-incubated inhibitor/enzyme mixtures in assay buffer in 0.5 ml cuvette at 37° is added 10 μl of the substrate. Final inhibitor concentrations become 2000 nM, 200 nM, and 20 nM for the 200 μM, 20 μM and 2 μM stock concentrations, respectively. Activity is followed by release of free AFC over 5 min. The change in fluorescence is (fluorescence units at t=6)−(fluorescence units at t=1) with a Perkin-Elmer LS-5B spectrofluorometer (ex=400 nm, em=505 nm). The percent inhibition is determined by comparing the change in fluorescence units of the three sample concentrations of inhibited enzyme to the change in fluorescence units of the control enzyme. The percent inhibition is calculated as:
# 100−(fl. units of sample/fl. units of control×100).
# The IC50 is ascertained by plotting percent inhibition vs. inhibitor concentration on the log scale. The IC50 is the concentration of the inhibitor (nM) at which the enzyme is inhibited by 50%.
# Pneumocystis carinii = experiment: In vitro inhibition of Pneumocystis carinii in culture with human embryonic lung fibroblast monolayers; type: cell-based
# Description: The percent of inhibition is calculated as 100−(the number of P. carinii trophozoites in a treated cell culture/number of trophosites of the control)×100.
# Methods. The drugs dissolved in dimethyl sulfoxide were diluted to concentrations of 10 μg/ml for compound 3 and […] for compound 9 in minimum essential medium used for the culture of human embryonic lung fibroblasts. […] Cell cultures in 24-well plates were innoculated with P. carinii trophozoites (final concentration, about 7×10^5 per ml) obtained from infected rat lungs. Each culture plate contained untreated and treated wells. Plates were incubated at 35° C. in a gas mixture of 5% O2, 10% CO2, 85% N2 for up to 7 days. Plates were sampled on days 1, 3, 5 and 7 by removal of 10 μl amounts after agitation of the cultures. The samples were placed on slides in 1-cm^2 areas, fixed in methanol and stained with Giemsa stain; and then they were examined microscopically as unknowns by two individuals. For each parameter there were four wells, making eight values for each parameter. Standard errors range from 3-13%. Cultures were spiked with fresh drugs on days 2, 4 and 6.
# T. cruzi [2] = experiment: Inhibition of T. cruzi in infected cells, cell line J774; type: cell-based; conditions: days before cell monolayer is destroyed by infection; 20 μM, daily change of medium plus inhibitor
# Description: (§1) Survival time is measured in days before the cell monolayer is destroyed by the infection. Irradiated BHK and J774 cells (six well plates) were infected with T. cruzi and simultaneously treated with 20 μM (3 ml total volume) with daily change of culture medium+plus inhibitor).
# (§2) Cultivation and preparation of T. cruzi. Cloned and uncloned populations were derived from the strains Brasil, and CA-I and are cryopreserved in liquid nitrogen. Axenically cultured epimastigotes are maintained in exponential growth phase by weekly passage in Brain Heart Infusion-Tryptose medium (BHT media as given in Cazzulo, Cazzulo, Martinez, and Cazzulo, Some Kinetic Properties of a Cysteine Proteinase (Cruzipain) from Trypanosoma Cruzi. 33 Mol. Biochem. Parasitol. 33-42 (1990)), supplemented with […] 10% (v/v) heat inactivated fetal calf serum (FCS). Different host cell lines (J774 mouse macrophage, BHK, etc.) are cultured with RPMI-1640 supplemented with 5% FCS at 37° in a humidified atmosphere containing 5% CO2. Trypomastigotes liberated from the host cells are used to infect new cultures for serial maintenance of the parasite in cell culture. The protocols used for the in vitro assays of cysteine protease inhibitors are essentially as described by Harth, Andrews, Mills, Engel, Smith, and McKerrow, Peptide-Fluoromethyl Ketones Arrest Intracellular Replication and Intercellular Transmission of Trypanosoma Cruzi. 58 Mol. Biochem. Parasitol. 17-24 (1993), with the exception that in some experiments, the host cells are irradiated (2400 RADs) before infection to prevent them from dividing.
# T. cruzi [3] = experiment: Inhibition of T. cruzi in infected cells, cell line BHK; type: cell-based; conditions: days before cell monolayer is destroyed by infection; 20 μM, daily change of medium plus inhibitor
# Description: as §1, §2
# [4] = not given; remark: listed apart in the source
# [5] = inhibitors with other heterocycles, read-out: IC5 Cathepsin B Inhibition
# [6] = purified cathepsin B, read-out: IC50 Cat B
Molecule,"IC50 [1, 5]","IC50 [1, 6]",also measured
CCC1OC(=O)C(OCC(=O)C(CCc2ccccc2)NC(=O)C(Cc2ccccc2)NC(=O)N2CCOCC2)=C1C (stereo not drawn),229 nM,,
Cc1ccc2cccc(OCC(=O)[C@H](CCc3ccccc3)NC(=O)[C@H](Cc3ccccc3)NC(=O)N3CCOCC3)c2n1,219 nM,,
Cc1cc(OCC(=O)[C@H](CCc2ccccc2)NC(=O)[C@H](Cc2ccccc2)NC(=O)N2CCOCC2)nc2ccccc12,282 nM,,
O=C(COc1ncnc2ccccc12)[C@H](CCc1ccccc1)NC(=O)[C@H](Cc1ccccc1)NC(=O)N1CCOCC1,1800 nM,,
O=C(COc1nc2ccccc2[nH]1)[C@H](CCc1ccccc1)NC(=O)[C@H](Cc1ccccc1)NC(=O)N1CCOCC1,569 nM,,
O=C(COc1nccc2ccccc12)[C@H](CCc1ccccc1)NC(=O)[C@H](Cc1ccccc1)NC(=O)N1CCOCC1,457 nM,,
Cc1cc(=O)oc2cc(OCC(=O)[C@H](CCc3ccccc3)NC(=O)[C@H](Cc3ccccc3)NC(=O)N3CCOCC3)ccc12,4500 nM,,
O=C(COc1ccc2ccc(=O)oc2c1)[C@H](CCc1ccccc1)NC(=O)[C@H](Cc1ccccc1)NC(=O)N1CCOCC1,4500 nM,,
O=C(COc1cc2ccccc2o1)[C@H](CCc1ccccc1)NC(=O)[C@H](Cc1ccccc1)NC(=O)N1CCOCC1,252 nM,,
Cc1occc(=O)c1OCC(=O)[C@H](CCc1ccccc1)NC(=O)[C@H](Cc1ccccc1)NC(=O)N1CCOCC1,385 nM,,
O=C(COc1nc2ccccc2s1)[C@H](CCc1ccccc1)NC(=O)[C@H](Cc1ccccc1)NC(=O)N1CCOCC1,21000 nM,,
O=C(COc1cccs1)[C@H](CCc1ccccc1)NC(=O)[C@H](Cc1ccccc1)NC(=O)N1CCOCC1,79000 nM,,
CCOC(=O)c1c(C)noc1OCC(=O)[C@H](CCc1ccccc1)NC(=O)[C@H](Cc1ccccc1)NC(=O)N1CCOCC1,2190 nM,,
C[n+]1ccc2ccccc2c1OCC(=O)[C@H](CCc1ccccc1)NC(=O)[C@H](Cc1ccccc1)NC(=O)N1CCOCC1,5600 nM,,
"O=C1CC(=O)C(c2ccccc2)=C1OCC(=O)[C@H](CCc1ccccc1)NC(=O)[C@H](Cc1ccccc1)NC(=O)N1CCOCC1 [Compound 1, N-Morpholinecarbonyl-L-phenylalanyl-L-homophenylalanine-α-(4-oxy-5-phenyl-4-cyclopentene-1,3-dione) methyl ketone]",,94 nM,
"O=C1OC(C(O)CO)C(OCC(=O)C(CCc2ccccc2)NC(=O)C(Cc2ccccc2)NC(=O)N2CCOCC2)=C1O [Compound 2, N-Morpholinecarbonyl-L-phenylalanyl-L-homophenylalanyl-α-(4-ascorbityl) methyl ketone]",,141 nM,
"Cc1cc(OCC(=O)[C@H](CCc2ccccc2)NC(=O)[C@H](Cc2ccccc2)NC(=O)N2CCOCC2)cc(=O)o1 [Compound 3, N-Morpholinecarbonyl-L-phenylalanyl-L-homophenylalanyl-α-(4-oxy-6-methyl-2-pyrone) methyl ketone]",,112 nM,"inhibition at 10 µg/mL (Pneumocystis carinii; 24 h, Day 1, 10 μg/ml for compound 3, 10 μM/ml for compound 9, read-out: Percent Inhibition, Day 1): 23%; inhibition at 10 µg/mL (Pneumocystis carinii; 48 h, Day 2, 10 μg/ml for compound 3, 10 μM/ml for compound 9, read-out: Percent Inhibition, Day 2): 44%; inhibition at 10 µg/mL (Pneumocystis carinii; 72 h, Day 3, 10 μg/ml for compound 3, 10 μM/ml for compound 9, read-out: Percent Inhibition, Day 3): 39%; inhibition at 10 µg/mL (Pneumocystis carinii; 96 h, Day 4, 10 μg/ml for compound 3, 10 μM/ml for compound 9, read-out: Percent Inhibition, Day 4): 13%"
"CC1CC(OCC(=O)C(CCc2ccccc2)NC(=O)C(Cc2ccccc2)NC(=O)N2CCOCC2)=CC(=O)O1 [Compound 4, N-Morpholinecarbonyl-L-phenylalanyl-L-homophenylalanyl-α-(4-oxy-5,6-dihydro-6-methyl-2H-pyran-2-one) methyl ketone]",,567 nM,melting point: 74 to 78 °C
Cc1cc(OCC(=O)[C@H](CCc2ccccc2)NC(=O)[C@H](CC(C)C)NC(=O)N2CCOCC2)cc(=O)o1 [Compound 5],,400 nM,melting point: 70 to 75 °C
"O=C(COc1cc(=O)oc2ccccc12)[C@H](CCc1ccccc1)NC(=O)[C@H](Cc1ccccc1)NC(=O)N1CCOCC1 [Compound 6, N-Morpholinecarbonyl-L-phenylalanyl-L-homophenylalanyl-α-(4-oxy-coumarin) methyl ketone]",,45 nM,"Survival Time, Cell line J774 (T. cruzi [2]): ≥ 16 days; melting point: 115 to 119 °C; Survival Time, Cell line BHK (T. cruzi [3]): ≥ 16 days"
Cc1cc(OCC(=O)[C@H](CCCCN)NC(=O)[C@H](Cc2ccccc2)NC(=O)N2CCOCC2)cc(=O)o1 [Compound 7],,25 nM,melting point: 151 to 155 °C
COc1ccc(C[C@H](NC(=O)N2CCOCC2)C(=O)N[C@@H](CCCCN)C(=O)COc2cc(C)oc(=O)c2)cc1 [Compound 8],,83 nM,melting point: 140 to 142 °C
"O=C1OCC(OCC(=O)[C@H](CCc2ccccc2)NC(=O)[C@H](Cc2ccccc2)NC(=O)N2CCOCC2)=C1c1ccccc1 [Compound 9, N-Morpholinecarbonyl-L-phenylalanyl-L-homophenylalanyl-α-(4-oxy-3-phenyl-dihydrofuran-2-one) methyl ketone]",,36 nM,"Survival Time, Cell line J774 (T. cruzi [2]): 4 days; melting point: 114 to 116 °C; Survival Time, Cell line BHK (T. cruzi [3]): 6 days"
"COc1ccc(C[C@H](NC(=O)N2CCOCC2)C(=O)N[C@@H](CCCCN)C(=O)COC2=C(c3ccccc3)C(=O)OC2)cc1 [Compound 10, N-Morpholinecarbonyl-L-tryosyl (O-methyl)-L-lysyl-(4-oxy-3-phenyl-dihydrofuran-2-one) methyl ketone]",,8 nM,melting point: 140 to 142 °C
"NCCCC[C@H](NC(=O)[C@H](Cc1ccccc1)NC(=O)N1CCOCC1)C(=O)COC1=C(c2ccccc2)C(=O)OC1 [Compound 11, N-Morpholinecarbonyl-L-phenylalanyl-L-lysyl-α-(4-oxy-3-phenyl-dihydrofuran-2-one) methyl ketone]",,5 nM,melting point: 140 to 145 °C
"O=C(N[C@@H](CCc1ccccc1)C(=O)CF)C(Cc1ccccc1)NC(=O)N1CCOCC1 (stereo partly drawn) [Mu—Phe—HPhe—CH2F, Morpholine-carbonyl-phenylalanyl-homophenylalanyl-fluoromethylketone, reference compound] ({Morpholide-CO}-[ξF]-[hPhe]-CH2F)",,,"Survival Time, Cell line J774 (T. cruzi [2]): ≥ 16 days; aqueous solubility ([4]; 20° C., distilled and deionized water): 140 µg/mL; Survival Time, Cell line BHK (T. cruzi [3]): ≥ 16 days"
benzoxycarbonyl-phenylalanyl-alanylfluoromethyl ketone [Z—Phe—Ala—CH2F],,,aqueous solubility ([4]; 14° C.): 45 µg/mL
